# Results taken from patent US10670605B2, “Cysteine reactive probes and uses thereof” (The Scripps Research Institute, priority 2015, dated 2020).
# Tests used:
# Assay in all cases: Competitive isoTOP-ABPP in situ (fragment-treated cells)
# Type in all cases: cell-based
# [1] = molecular target: cysteines in MDA-MB-231 and Ramos cells (Homo sapiens, UniProt O15446); conditions: 200 μM, insitu, 231
# [2] = molecular target: T1, cysteines in MDA-MB-231 and Ramos cells (Homo sapiens, UniProt Q86UY8)
# T1 sequence (Q86UY8 1-548): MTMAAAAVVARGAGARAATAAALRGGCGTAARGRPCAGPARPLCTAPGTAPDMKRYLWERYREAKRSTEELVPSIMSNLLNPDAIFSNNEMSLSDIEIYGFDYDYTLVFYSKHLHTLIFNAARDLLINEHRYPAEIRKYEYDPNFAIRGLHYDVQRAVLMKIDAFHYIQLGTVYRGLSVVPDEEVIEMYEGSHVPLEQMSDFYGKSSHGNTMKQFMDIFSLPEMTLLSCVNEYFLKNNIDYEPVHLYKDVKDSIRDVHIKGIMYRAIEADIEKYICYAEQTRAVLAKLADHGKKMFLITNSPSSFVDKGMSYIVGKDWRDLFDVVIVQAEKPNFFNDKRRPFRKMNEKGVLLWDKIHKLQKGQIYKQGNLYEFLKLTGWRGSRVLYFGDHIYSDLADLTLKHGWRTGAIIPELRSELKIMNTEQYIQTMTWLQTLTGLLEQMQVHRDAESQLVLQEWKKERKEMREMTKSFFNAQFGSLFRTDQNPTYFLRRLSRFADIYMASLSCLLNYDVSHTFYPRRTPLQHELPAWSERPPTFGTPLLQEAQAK
# [3] = molecular target: T2, cysteines in MDA-MB-231 and Ramos cells (Homo sapiens, UniProt Q9NWA0)
# T2 sequence (Q9NWA0 1-146): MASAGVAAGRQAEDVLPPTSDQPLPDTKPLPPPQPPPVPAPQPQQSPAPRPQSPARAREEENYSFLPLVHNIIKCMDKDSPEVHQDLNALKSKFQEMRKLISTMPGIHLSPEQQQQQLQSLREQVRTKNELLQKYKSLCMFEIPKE
# [4] = molecular target: cysteines in MDA-MB-231 and Ramos cells (Homo sapiens, UniProt Q15118)
# [5] = molecular target: T3, cysteines in MDA-MB-231 and Ramos cells (Homo sapiens, UniProt P55265); conditions: 200 μM, insitu
# T3 sequence (P55265 1-1226): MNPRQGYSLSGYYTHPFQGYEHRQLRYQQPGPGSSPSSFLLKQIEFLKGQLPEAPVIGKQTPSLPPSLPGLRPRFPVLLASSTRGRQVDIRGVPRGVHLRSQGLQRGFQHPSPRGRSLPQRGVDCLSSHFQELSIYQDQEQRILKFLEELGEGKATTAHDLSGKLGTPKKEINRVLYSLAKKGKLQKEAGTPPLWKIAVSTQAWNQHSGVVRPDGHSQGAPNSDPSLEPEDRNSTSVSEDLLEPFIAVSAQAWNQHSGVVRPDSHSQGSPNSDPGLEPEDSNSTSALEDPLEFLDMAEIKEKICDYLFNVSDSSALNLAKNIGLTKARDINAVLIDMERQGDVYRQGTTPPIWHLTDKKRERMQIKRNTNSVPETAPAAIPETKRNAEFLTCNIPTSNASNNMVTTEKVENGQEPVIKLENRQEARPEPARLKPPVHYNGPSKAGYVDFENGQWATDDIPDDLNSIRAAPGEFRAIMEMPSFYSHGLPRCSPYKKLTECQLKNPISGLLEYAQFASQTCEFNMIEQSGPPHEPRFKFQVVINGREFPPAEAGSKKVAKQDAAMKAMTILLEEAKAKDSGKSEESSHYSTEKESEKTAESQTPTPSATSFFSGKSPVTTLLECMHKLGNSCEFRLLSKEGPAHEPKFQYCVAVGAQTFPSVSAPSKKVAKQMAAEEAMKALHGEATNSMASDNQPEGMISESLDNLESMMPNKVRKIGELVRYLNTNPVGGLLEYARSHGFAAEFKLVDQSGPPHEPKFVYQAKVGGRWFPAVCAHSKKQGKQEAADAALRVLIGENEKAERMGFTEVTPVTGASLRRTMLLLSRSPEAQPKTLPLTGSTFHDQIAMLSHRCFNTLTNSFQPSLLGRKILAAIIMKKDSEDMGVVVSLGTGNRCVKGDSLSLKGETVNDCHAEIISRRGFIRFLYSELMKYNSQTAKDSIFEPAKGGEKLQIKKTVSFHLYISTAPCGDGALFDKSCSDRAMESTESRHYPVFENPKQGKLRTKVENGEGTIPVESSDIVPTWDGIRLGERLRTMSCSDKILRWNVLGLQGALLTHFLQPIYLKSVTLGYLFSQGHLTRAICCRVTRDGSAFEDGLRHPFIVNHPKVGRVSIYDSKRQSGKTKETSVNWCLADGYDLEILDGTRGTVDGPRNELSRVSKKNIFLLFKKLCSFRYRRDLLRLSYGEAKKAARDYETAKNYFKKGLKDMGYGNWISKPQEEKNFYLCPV
# [6] = molecular target: T4, cysteines in MDA-MB-231 and Ramos cells (Homo sapiens, UniProt Q15013)
# T4 sequence (Q15013 1-274): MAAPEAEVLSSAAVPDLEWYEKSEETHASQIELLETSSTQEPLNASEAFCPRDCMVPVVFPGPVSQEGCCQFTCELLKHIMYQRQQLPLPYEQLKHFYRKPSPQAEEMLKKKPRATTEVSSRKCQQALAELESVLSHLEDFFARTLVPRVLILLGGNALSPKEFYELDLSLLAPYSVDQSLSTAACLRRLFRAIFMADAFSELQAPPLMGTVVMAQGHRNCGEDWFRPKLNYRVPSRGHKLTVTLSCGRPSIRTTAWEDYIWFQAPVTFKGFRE
# [7] = molecular target: T5, cysteines in MDA-MB-231 and Ramos cells (Homo sapiens, UniProt O75439)
# T5 sequence (O75439 44-489): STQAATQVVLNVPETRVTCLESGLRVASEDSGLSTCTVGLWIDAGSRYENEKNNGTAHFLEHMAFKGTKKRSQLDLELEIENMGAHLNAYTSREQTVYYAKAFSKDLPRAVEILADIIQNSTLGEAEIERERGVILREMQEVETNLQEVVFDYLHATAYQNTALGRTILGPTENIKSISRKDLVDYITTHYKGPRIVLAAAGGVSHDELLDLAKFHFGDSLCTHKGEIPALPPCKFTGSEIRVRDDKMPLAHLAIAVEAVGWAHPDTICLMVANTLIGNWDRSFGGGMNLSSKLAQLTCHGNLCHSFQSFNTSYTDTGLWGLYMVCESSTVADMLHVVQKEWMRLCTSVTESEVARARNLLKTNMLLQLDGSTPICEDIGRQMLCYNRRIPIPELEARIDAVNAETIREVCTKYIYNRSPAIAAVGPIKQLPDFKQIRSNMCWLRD
# Sequence of cysteines in MDA-MB-231 and Ramos cells (Homo sapiens, UniProt O15446) (O15446 whole entry): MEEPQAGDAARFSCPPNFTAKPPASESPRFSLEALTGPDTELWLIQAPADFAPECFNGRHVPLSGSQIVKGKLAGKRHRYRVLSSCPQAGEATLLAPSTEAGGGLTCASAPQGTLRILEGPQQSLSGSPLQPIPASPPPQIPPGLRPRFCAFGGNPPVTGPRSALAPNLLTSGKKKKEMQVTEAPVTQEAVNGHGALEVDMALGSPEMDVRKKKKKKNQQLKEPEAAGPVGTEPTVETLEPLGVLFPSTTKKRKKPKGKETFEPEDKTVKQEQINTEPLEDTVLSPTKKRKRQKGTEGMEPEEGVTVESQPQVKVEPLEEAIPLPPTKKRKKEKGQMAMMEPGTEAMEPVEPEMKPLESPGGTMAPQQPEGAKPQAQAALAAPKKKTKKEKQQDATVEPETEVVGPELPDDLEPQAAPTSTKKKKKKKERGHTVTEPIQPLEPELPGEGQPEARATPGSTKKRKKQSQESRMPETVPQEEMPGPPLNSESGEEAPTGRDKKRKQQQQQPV
# Sequence of cysteines in MDA-MB-231 and Ramos cells (Homo sapiens, UniProt Q15118) (Q15118 29-436): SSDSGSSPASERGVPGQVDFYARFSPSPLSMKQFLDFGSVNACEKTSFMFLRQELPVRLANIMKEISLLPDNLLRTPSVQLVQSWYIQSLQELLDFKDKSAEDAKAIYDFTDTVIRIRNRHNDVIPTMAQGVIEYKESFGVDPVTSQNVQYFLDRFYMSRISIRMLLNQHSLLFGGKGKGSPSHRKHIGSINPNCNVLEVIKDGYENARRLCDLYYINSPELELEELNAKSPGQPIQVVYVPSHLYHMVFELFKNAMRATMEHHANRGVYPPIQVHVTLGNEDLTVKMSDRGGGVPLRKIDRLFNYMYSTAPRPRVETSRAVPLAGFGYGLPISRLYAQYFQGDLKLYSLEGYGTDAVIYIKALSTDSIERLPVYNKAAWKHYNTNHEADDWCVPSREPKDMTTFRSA
compound,measurement,setting,value
COc1ccc2c(c1)CCCN2C(=O)CCl [compound 2],isoTOP-ABPP reactivity O15446_C86 CD3EAP,[1],3.9
same,isoTOP-ABPP reactivity Q86UY8_C276 NT5DC3,"[2]; 200 μM, insitu, 231",3.8
same,isoTOP-ABPP reactivity Q9NWA0_0139 MED9,"[3]; 200 μM, insitu, 231",4.3
same,isoTOP-ABPP reactivity Q15118_C71 PDK1,"[4]; 200 μM, insitu, 231",20.0
same,isoTOP-ABPP reactivity P55265_C1224 ADAR,[5]; 231,9.1
COc1ccc(C2CC(c3cccs3)=NN2C(=O)CCl)cc1 (centres unmarked) [compound 4],isoTOP-ABPP reactivity Q9NWA0_0139 MED9,[3]; 100 μM in situ 231,14
same,isoTOP-ABPP reactivity Q15013_C124 MAD2L1BP,[6]; 100 μM in situ 231,13.0
same,isoTOP-ABPP reactivity Q15118_C71 PDK1,[4]; 100 μM in situ 231,20.0
COc1cc2c(cc1OC)CN(C(=O)CCl)CC2 [compound 8],isoTOP-ABPP reactivity Q15013_C124 MAD2L1BP,"[6]; 200 μM, insitu, 231",5.4
same,isoTOP-ABPP reactivity Q15118_C71 PDK1,"[4]; 200 μM, insitu, 231",20.0
O=C(CCl)N1CCN(S(=O)(=O)c2ccccc2F)CC1 [compound 10],"isoTOP-ABPP ratio, cysteine O15446_C86",[1],4.7
same,isoTOP-ABPP ratio Q86UY8_C276,"[2]; 200 μM, insitu, 231",5.8
same,"isoTOP-ABPP ratio, cysteine Q9NWA0_C139","[3]; 200 μM, insitu, 231",2.9
same,"isoTOP-ABPP ratio, cysteine O75439_C265","[7]; 200 μM, insitu, ramos",2.1
same,isoTOP-ABPP ratio Q15118_C71,"[4]; 200 μM, insitu, 231",18.0
same,isoTOP-ABPP ratio Q15118_C71,"[4]; 200 μM, insitu, ramos",2.7
same,"isoTOP-ABPP ratio, cysteine P55265_C1224",[5]; 231,10.7
Cn1cc(S(=O)(=O)N2CCOCC2)cc1C(=O)NC(=O)CCl [compound 11],isoTOP-ABPP ratio Q86UY8_C276,[2]; 100 μM in situ 231,1.4
same,"isoTOP-ABPP ratio, cysteine O75439_C265",[7]; 100 μM in situ 231,1.0
same,"isoTOP-ABPP ratio, cysteine Q15013_C124",[6]; 100 μM in situ 231,1.0
same,isoTOP-ABPP ratio Q15118_C71,[4]; 100 μM in situ 231,0.6
O=C(CCl)NC(=O)NC12CC3CC(CC(C3)C1)C2 [compound 12],"isoTOP-ABPP ratio, cysteine O15446_C86",[1],3.3
same,isoTOP-ABPP ratio Q86UY8_C276,"[2]; 200 μM, insitu, 231",20.0
same,"isoTOP-ABPP ratio, cysteine Q9NWA0_C139","[3]; 200 μM, insitu, 231",20.0
O=C(CCl)NCCc1c[nH]c2ccccc12 [compound 13],"isoTOP-ABPP ratio, cysteine O15446_C86",[1],1.3
same,isoTOP-ABPP ratio Q86UY8_C276,"[2]; 200 μM, insitu, 231",1.5
same,"isoTOP-ABPP ratio, cysteine Q9NWA0_C139","[3]; 200 μM, insitu, 231",1.1
same,isoTOP-ABPP ratio Q15118_C71,"[4]; 200 μM, insitu, 231",1.6
same,"isoTOP-ABPP ratio, cysteine P55265_C1224",[5]; 231,1.9
O=C(CCl)NC12CC3CC(CC(C3)C1)C2 [compound 21],"isoTOP-ABPP ratio, cysteine O15446_C86",[1],1.7
same,isoTOP-ABPP ratio Q86UY8_C276,"[2]; 200 μM, insitu, 231",1.8
same,"isoTOP-ABPP ratio, cysteine Q9NWA0_C139","[3]; 200 μM, insitu, 231",1.5
same,isoTOP-ABPP ratio Q15118_C71,"[4]; 200 μM, insitu, 231",1.7
same,"isoTOP-ABPP ratio, cysteine P55265_C1224",[5]; 231,2.2
CC(C)CCOCCNC(=O)CCl [compound 27],isoTOP-ABPP ratio Q86UY8_C276,"[2]; 200 μM, insitu, 231",1.7
same,isoTOP-ABPP ratio Q9NWA0_C139,"[3]; 200 μM, insitu, 231",1.3
same,isoTOP-ABPP ratio O75439_C265,"[7]; 200 μM, insitu, 231",1.6
same,isoTOP-ABPP ratio Q15013_C124,"[6]; 200 μM, insitu, 231",1.0
same,isoTOP-ABPP ratio Q15118_C71,"[4]; 200 μM, insitu, 231",1.5
same,isoTOP-ABPP ratio P55265_C1224,[5]; 231,1.4
COc1ccccc1OCCNC(=O)CCl [compound 28],isoTOP-ABPP ratio O75439_C265,"[7]; 200 μM, insitu, 231",0.6
same,isoTOP-ABPP ratio Q15013_C124,"[6]; 200 μM, insitu, 231",1.0
O=C(CCl)N1CCN(CC(=O)N2CCOCC2)CC1 [compound 29],isoTOP-ABPP ratio Q9NWA0_C139,"[3]; 200 μM, insitu, ramos",0.7
same,isoTOP-ABPP ratio Q15118_C71,"[4]; 200 μM, insitu, ramos",1.8
same,isoTOP-ABPP ratio P55265_C1224,[5]; ramos,1.8
C=CC(=O)N(Cc1cccnc1)c1cc(C(F)(F)F)cc(C(F)(F)F)c1 [compound 31],isoTOP-ABPP ratio O75439_C265,"[7]; 200 μM, insitu, 231",1.0
same,isoTOP-ABPP ratio O75439_C265,"[7]; 200 μM, insitu, ramos",1.4
C=CC(=O)Nc1cc(F)c(N2CCN(C(=O)OC(C)(C)C)CC2)c(F)c1 [compound 38],isoTOP-ABPP ratio Q15118_C71,"[4]; 200 μM, insitu, 231",1.3
Cc1ccc(C=C(C#N)C(=O)NCCN2CCOCC2)cc1 [compound 41],isoTOP-ABPP ratio Q86UY8_C276,"[2]; 200 μM, insitu, 231",1.7
same,isoTOP-ABPP ratio Q9NWA0_C139,"[3]; 200 μM, insitu, 231",0.8
same,isoTOP-ABPP ratio O75439_C265,"[7]; 200 μM, insitu, 231",1.3
CC1CCc2ccccc2N1C(=O)CCl (centres unmarked) [compound 45],isoTOP-ABPP ratio O15446_C86,[1],4.6
same,isoTOP-ABPP ratio Q86UY8_C276,"[2]; 200 μM, insitu, 231",2.1
same,isoTOP-ABPP ratio Q15013_C124,"[6]; 200 μM, insitu, 231",20.0
same,isoTOP-ABPP ratio Q15118_C71,"[4]; 200 μM, insitu, 231",20.0
same,isoTOP-ABPP ratio P55265_C1224,[5]; 231,20.0
O=C(CCl)Nc1cccc2ncccc12 [compound 51],isoTOP-ABPP ratio Q86UY8_C276,"[2]; 200 μM, insitu, 231",1.2
same,isoTOP-ABPP ratio Q15013_C124,"[6]; 200 μM, insitu, 231",1.2
same,isoTOP-ABPP ratio P55265_C1224,[5]; 231,1.3
